# System: retinal ganglion cells
# Test: In vivo retinal ischaemia-reperfusion model, Tonabersat
# Set-up: species or system Wistar rats
# Settings: 7 days; for Retinal ganglion cell density: ischaemic eyes, mean±standard error
# Description: Animals were anesthetized with an intraperitoneal injection of ketamine (60 mg/kg) and medetomidine hydrochloride (0.4 mg/kg) and the cornea anaesthetized with oxybuprocaine hydrochloride (0.4%). The technique of retinal ischaemia-reperfusion has previously been described (D. Sun, et al., The Journal of comparative neurology 505, 114 (Nov. 1, 2007)). Briefly, the left anterior chamber was cannulated with a 30-gauge infusion needle connected by silicone tubing to a reservoir of sterile 0.9% saline. Cannulation was performed using a stereotaxic manipulator arm to avoid injury to the corneal endothelium, iris, or lens. The intraocular pressure of the cannulated eye was raised to 120 mmHg for 60 minutes by elevating the saline reservoir. Retinal ischaemia-reperfusion was confirmed by pallor of the posterior segment. After 60 minutes, the cannula was removed and reperfusion of the retinal vessels was confirmed by ophthalmoscopy. Three experimental arms were applied at the end of 60 minutes of ischaemia. These included: no treatment (n=6), 10 mg/kg Tonabersat (n=6), or 1 mg/kg Tonabersat (n=4). Systemic delivery of 0.25 mL of a 10 mg/ml or 1 mg/ml Tonabersat solution diluted in 40% PEG, 60% cyclodextrin solution was achieved through intraperitoneal delivery at the start of reperfusion. A final blood Tonabersat concentration of 0.319 mM or 0.0319 mM was intended, assuming a blood volume of 20 mL and total systemic uptake of peptide. Animals were euthanized with CO2 at 7 days after reperfusion. One uninjured animal was euthanized to obtain uninjured retinas as normal controls.
# After euthanasia eyes were enucleated, and the cornea, lens, and vitreous humour removed. The dorsal aspect of the retina was notched to retain orientation. The retina and sclera were fixed in 4% PFA in PBS for 60 minutes at room temperature (RT). The retina was then carefully removed from the sclera and permeabilized via incubation in 0.5% Triton-X100 in PBS solution for 15 minutes at […] Retinas were mounted onto SuperFrost Plus slides using citifluor mounting medium, and imaged.
# Two fields in each quadrant of each retina were imaged giving a total of eight images per retina. This method insured similar locations were assessed between different eyes and avoided any possible area bias present in the retina. Retinal ganglion cell (RGC) labelling was imaged at 10× magnification. […] Spots of one or two pixels that resulted from noise and artefacts that were clearly not RGC of origin were excluded during particle counts. RGC density was calculated as the number of RGCs per cm2.
smiles,measurement,setting,value
"CC(=O)c1ccc2c(c1)[C@H](NC(=O)c1ccc(F)c(Cl)c1)[C@H](O)C(C)(C)O2 [Tonabersat, N-[(3S,4S)-6-acetyl-3-hydroxy-2,2-dimethyl-3,4-dihydrochromen-4-yl]-3-chloro-4-fluorobenzamide]",RGC loss compared to normal controls,1 mg/kg intraperitoneal at start of reperfusion,18%
same,Retinal ganglion cell density,1 mg/kg intraperitoneal,199927±26058 cells/cm2
same,RGC loss compared to normal controls,10 mg/kg intraperitoneal at start of reperfusion,35%
same,Retinal ganglion cell density,10 mg/kg intraperitoneal,158739±26370 cells/cm2
